This note sets out measurements from patent US20250084453A1, “SYSTEMS, COMPOSITIONS AND METHODS FOR IDENTIFYING E3 LIGASE SUBSTRATES BY UBIQUITIN BIOTINYLATION” (The Broad Institute, Inc., priority 2022, published 2025).

What all share (assay type): cell-based, human
The test system of assay [1] is GSPT1. Briefly: GSPT1 degradation by Western blot in HEK293T cells and CRBN-/- derivatives. Here is the method:
(§1) However, instead of assessing transiently-expressed V5-tagged IKZF1, an endogenous neo-substrate of CRBN, namely, GSPT1, was assessed. […] Following incubation with the components and added agents, the cells were lysed, and streptavidin-coated beads were used to capture from the cell lysate biotinylated, ubiquitinated proteins, e.g., the endogenous GSPT1 substrate. The biotinylated proteins eluted from the beads were subjected to Western blot analyses.

Assay [2] concerns GSPT1. Description: Streptavidin pulldown and Western blot of biotinylated ubiquitinated GSPT1 in 293T CRBN-/- CRBN-BirA cells. Here is the method:
as §1
The cells were either treated or untreated with carfilzomib (0.4 μM) for 1 hour and were either treated or untreated with the CRBN-IMiD modifying agent CC-885 (1 μM) for another hour. […] As discussed above in Example 1, the GSPT1 substrate of BirA-tagged CRBN is expressed endogenously in 293T cells.
The preparation of cellular lysate was as described above for Cell Lysis, except that the RIPA buffer was supplemented with COMPLETE™ EDTA-free protease inhibitor cocktail (Roche; 04693159001; 1 tablet per 10 ml of buffer), benzonase (Millipore; E1014; 1 μl per 10 ml of buffer), 1.5 mM MgCl2, 1 mM EGTA, and 10 mM NEM (N-ethylmaleimide). For each sample, 1 ml of 3 mg/ml lysate was rotated overnight at 4° C. with 50 μl of resuspended streptavidin Sepharose beads (CYTIVA™; 17511301), which were pre-washed with RIPA lysis buffer 3 times. For all steps that required pelleting of beads, centrifugation was performed at 400×g for 1 minute. On the next day, streptavidin beads were pelleted, and the supernatant (a.k.a. flow-through) was either saved for analysis by Western blotting or was discarded. Streptavidin beads were then washed two times with 1 ml of 2% SDS wash buffer (2% SDS, 25 mM Tris-HCl, pH 7.5), and three times with 0.5-1 ml of 2M urea wash buffer (2M urea, 50 mM Tris-HCl, pH 8). Between each wash, the beads were rotated at room temperature for at least 5 minutes. During the last wash, the beads and the washing buffer were transferred to a new microfuge tube. […] For mass spectrometry-based analysis, the procedures described in On-bead Digestion below were used.
On the next day, the cells were transfected using pRK5-Avi-HA-ubiquitin or pRK5-A3-HA-ubiquitin in serum-free DMEM.
For orientation: In western blotting, separated proteins are transferred to a membrane and probed.

The next assay relates to CRBN E3 ligase. Briefly: MS comparison of loss-of-function CRBN-BirA mutants (D249Y, W386A) with WT CRBN-BirA under CC-885. The following applies: CC-885 1 μM, 1 hour; D249Y and W386A; FIGS. 16A, 16B. Here is the method: Experiments were performed to identify substrates of an E3 ligase using CRBN as a representative E3 ligase. The experiments compared loss-of-function mutants of an E3 ligase (e.g., CRBN E3 ligase) to the wildtype (WT) ligase. FIGS. 16A and 16B show the results of a mass spectrometry experiment in which protein substrates susceptible to CC-885 induced ubiquitination were identified. These experiments were performed in HEK293T^CRBN−/− cells transiently expressing A3-HA-Ub and either WT CRBN-BirA or CRBN-BirA mutant D249Y (FIG. 16A) or CRBN-BirA mutant W386A (FIG. 16B). Compared with CRBN(WT), CRBN(D249Y) had decreased association with the CRL4 complex, while CRBN(W386A) had decreased affinity for CC-885. Both mutants were expected to have a diminished ability to ubiquitinate CC-885-induced substrates. While cultured in biotin-free medium, the cells were pre-treated with carfilzomib (carf; 0.4 μM) for 1 hour, and then were treated with the IMiD derivative CC-885 (1 μM) for another hour. […] Enrichment of biotinylated species by streptavidin-coated beads, protein digestion, and protein identification and quantification by mass spectrometry were performed exactly as described in Example 3 and 4. […]

Turning to `Cc1ccc(NC(=O)NCc2ccc3c(c2)CN(C2CCC(=O)NC2=O)C3=O)cc1Cl` (stereo not shown) [CC-885], the “GSPT1 degradation (Western blot, FIG. 5A)” value in the assay on GSPT1 [1] (293T CRBN-/- CRBN-BirA cells with Avi-HA-Ub, 1 μM, 2 hours) is “degraded”. Also, the “GSPT1 degradation (Western blot)” value with GSPT1 [1] (293T CRBN-/- cells expressing BirA-CRBN or CRBN-BirA, 1 μM, 4 hours) is recorded as “degraded”; with GSPT1 [1] (293T CRBN-/- cells, 1 μM, 4 hours) it was “not degraded”; in the assay with GSPT1 [1] (HEK293T cells, 10 nM, 100 nM, 1 μM or 10 μM for 3.5 hours) it was “degraded in cells in a dose-dependent matter”. For the same molecule, the “Specific signal, normalized GSPT1/biotin ratios” value in the assay on GSPT1 [2] (A3-tag compared to Avi-tag, FIG. 6C) is reported as “increase in specific signal”. The “Sensitivity in detecting CC-885-induced ubiquitination of GSPT1 by CRBN” value amounted to 36.39 with GSPT1 [2] (A3-tag, FIG. 6C) and 15.46 in the assay on GSPT1 [2] (Avi-tag, FIG. 6C). In addition, the “Ubiquitinated GSPT1 captured by streptavidin beads compared with DMSO” value with GSPT1 [2] (Avi-HA-Ub, 1 μM, 2 hours, Western blot quantification (FIG. 5C)) is 6-12 fold. For the same molecule, the “Mono- and poly-ubiquitinated GSPT1 captured by streptavidin beads” value in the assay on GSPT1 [2] (Avi-HA-Ub, FIG. 5C) is on record as “only observed in conditions where CC-885 was present”. Further, the “Induced ubiquitinated substrates revealed by decreased biotinylation with CRBN-BirA mutants versus WT” value in the assay with CRBN E3 ligase was “GSPT1, GSPT2, VCL and CSNK1A1”.
